The values below come from patent US8921555B2, “Substituted-1,3,8-triazaspiro[4.5]decane-2,4-diones” (Merck Sharp & Dohme Corp., priority 2009, dated 2014).

For orientation: IC50 means the midpoint of a concentration-inhibition curve.

Holding throughout (assay type): biochemical
One test addresses T1, HIF-PHD2 (Homo sapiens, UniProt Q9GZT9).
T1 construct: FLAG-tagged full length PHD2 expressed in and purified from baculovirus-infected Sf9 cells; FLAG; made in house; host or cells: baculovirus-infected Sf9 cells
The test is described as follows: Assay for HIF-PHD2 Catalytic Activity (PHD2 Binding Activity).

The next test addresses HIF-PHD1 (Homo sapiens, UniProt Q96KS0). The test is described as follows: Inhibition of the catalytic activity of HIF-PHD1. The conditions noted are these: comparison compounds of WO 2008/030412; read-out: IC50 (nM) HIF-PHD-1. On the procedure: (§1) To each well of a 96-well plate was added 1 μL of test compound in DMSO and 20 μL of assay buffer (50 mM Tris pH 7.4/0.01% Tween-20/0.1 mg/ml bovine serum albumin/10 μM ferrous sulfate/1 mM sodium ascorbate/20 μg/ml catalase) containing 0.15 μg/ml FLAG-tagged full length PHD2 expressed in and purified from baculovirus-infected Sf9 cells. After a […] at room temperature, the enzymatic reactions were initiated by the addition of 4 μL of substrates (final concentrations of 0.2 μM 2-oxoglutarate and 0.5 μM HIF-1α peptide biotinyl-[…]). After 2 hr at room temperature, the reactions were terminated and signals were developed by the addition of a 25 μL quench/detection mix to a final concentration of 1 mM ortho-phenanthroline, 0.1 mM EDTA, 0.5 nM anti-(His)6 LANCE reagent (Perkin-Elmer Life Sciences), 100 nM AF647-labeled streptavidin (Invitrogen), and 2 μg/ml (His)6-VHL complex (S. Tan(2001) Protein Expr. Purif. 21, 224-234). The ratio of time resolved fluorescence signals at 665 and 620 nm was determined, and percent inhibition was calculated relative to an uninhibited control sample run in parallel.
(§2) Inhibition of the catalytic activity of HIF-PHD1 and HIF-PHD3 can be determined similarly.

Another test concerns the target HIF-PHD3 (Homo sapiens, UniProt Q9H6Z9). The test is described as follows: Inhibition of the catalytic activity of HIF-PHD3. To be noted: comparison compounds of WO 2008/030412; read-out: IC50 (nM) HIF-PHD-3. The procedure:
as §1, §2

Like-named read-outs stand apart in the source and are kept apart here. Some results are limits rather than exact numbers.

T1 sequence (Q9GZT9 whole entry): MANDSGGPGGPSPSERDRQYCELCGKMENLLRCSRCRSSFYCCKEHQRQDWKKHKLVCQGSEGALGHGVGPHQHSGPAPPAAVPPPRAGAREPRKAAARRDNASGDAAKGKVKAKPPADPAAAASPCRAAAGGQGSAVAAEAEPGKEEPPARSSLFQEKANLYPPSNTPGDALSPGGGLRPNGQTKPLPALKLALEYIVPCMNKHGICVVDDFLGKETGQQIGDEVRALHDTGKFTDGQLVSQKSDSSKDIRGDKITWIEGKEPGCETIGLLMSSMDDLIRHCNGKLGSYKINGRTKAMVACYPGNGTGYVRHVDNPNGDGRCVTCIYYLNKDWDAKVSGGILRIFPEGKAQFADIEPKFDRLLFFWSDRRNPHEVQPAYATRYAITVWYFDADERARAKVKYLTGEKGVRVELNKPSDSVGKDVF
HIF-PHD1, sequence (Q96KS0 whole entry): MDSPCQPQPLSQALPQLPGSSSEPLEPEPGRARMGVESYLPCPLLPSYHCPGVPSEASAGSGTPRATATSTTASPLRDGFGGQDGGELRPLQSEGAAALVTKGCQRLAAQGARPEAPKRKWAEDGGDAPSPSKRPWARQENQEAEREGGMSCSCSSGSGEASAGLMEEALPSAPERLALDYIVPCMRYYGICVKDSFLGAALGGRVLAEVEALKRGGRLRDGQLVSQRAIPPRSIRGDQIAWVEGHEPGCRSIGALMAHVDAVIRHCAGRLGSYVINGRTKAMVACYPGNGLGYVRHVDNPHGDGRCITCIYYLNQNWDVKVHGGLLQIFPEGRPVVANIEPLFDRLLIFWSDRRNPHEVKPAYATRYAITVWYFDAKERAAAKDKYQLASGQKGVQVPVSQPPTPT
HIF-PHD3, sequence (Q9H6Z9 whole entry): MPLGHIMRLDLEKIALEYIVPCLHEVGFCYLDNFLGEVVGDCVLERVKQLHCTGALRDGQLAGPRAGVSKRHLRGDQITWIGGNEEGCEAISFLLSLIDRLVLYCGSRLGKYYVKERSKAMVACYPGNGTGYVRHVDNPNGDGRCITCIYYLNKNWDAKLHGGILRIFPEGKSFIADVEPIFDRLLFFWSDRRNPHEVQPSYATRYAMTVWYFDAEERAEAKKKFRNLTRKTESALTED

As for `CC(C)Oc1cccc(CN2CC[C@@]3(C[C@@H]2C)C(=O)N(c2ccccc2)C(=O)N3c2cccc(F)c2)c1` [Egbertson's Example 31], the IC50 on HIF-PHD2, on HIF-PHD1 and on HIF-PHD3 was above 10000 nM throughout. Turning to `O=C(O)c1[nH]cnc1CN1CCC2(CC1)C(=O)N(c1ccc(-c3ccccc3)cc1)C(=O)N2c1ncccn1` [Compound 1-64, 4-[(3-biphenyl-4-yl-2,4-dioxo-1-pyrimidin-2-yl-1,3,8-triazaspiro[4.5]dec-8-yl)methyl]-1-H-imidazole-5-carboxylic acid], at HIF-PHD2, the 50% inhibitory concentration (IC50) lay in the range of 0.5 to 20 nM. With `CCCCOC(=O)c1[nH]cnc1CN1CCC2(CC1)C(=O)N(c1ccc(-c3ccccc3)cc1)C(=O)N2c1nccc(O)n1` [Compound 1-46, Butyl 4-{[3-biphenyl-4-yl-1-(4-hydroxypyrimidin-2-yl)-2,4-dioxo-1,3,8-triazaspiro[4.5]dec-8-yl]methyl}-1-H-imidazole-5-carboxylate], the half-inhibitory concentration (IC50) at HIF-PHD2 is 20 to 50 nM.

The molecule `Cc1cccnc1CN1CCC2(C(=O)N(c3ccc(-c4ccccc4)cc3)C(=O)N2c2ncccn2)C(C(=O)O)C1` (stereo not shown) [Compound 3-8, 3-biphenyl-4-yl-8-[(3-methylpyridin-2-yl)methyl]-2,4-dioxo-1-pyrimidin-2-yl-1,3,8-triazaspiro[4.5]decane-6-carboxylic acid] displayed an IC50 at HIF-PHD2 of 0.5 to 20 nM. On the same count and under the same terms, the figure for `Cc1cncc(N2C(=O)N(c3ccc(-c4ccc(C(=O)O)cc4C)cc3)C(=O)C23CCN(Cc2ncccc2C)CC3)n1` [Compound 7-6, 2-methyl-4′-{1-(6-methylpyrazin-2-yl)-8-[(3-methylpyridin-2-yl)methyl]-2,4-dioxo-1,3,8-triazaspiro[4.5]dec-3-yl}biphenyl-4-carboxylic acid] is 0.5 to 20 nM. On the same count and under the same terms, the figure for `Cc1cccnc1CN1CCC2(CC1)C(=O)N(c1ccc(-c3ccccc3)cc1)C(=O)N2c1nc(O)cc(O)n1` [Compound 1-55, 3-biphenyl-4-yl-1-(4,6-dihydroxypyrimidin-2-yl)-8-[(3-methylpyridin-2-yl)methyl]-1,3,8-triazaspiro[4.5]decane-2,4-dione] is 0.5 to 20 nM. For the molecule `Cc1cccnc1CN1CCC2(CC1)C(=O)N(c1ccc(-c3ccccc3)cc1)C(=O)N2C` [Compound 2-1, 3-biphenyl-4-yl-1-methyl-8-[(3-methylpyridin-2-yl)methyl]-1,3,8-triazaspiro[4.5]decane-2,4-dione], the IC50 on HIF-PHD2 (read-out: PHD2 Binding Activity IC50) fell in the range of 0.5 to 20 nM. `Cc1cc(C(=O)O)ccc1-c1ccc(N2C(=O)N(c3cccnn3)C3(CCN(Cc4ncccc4C)CC3)C2=O)cc1` [Compound 9-2, 2-methyl-4′-{8-[(3-methylpyridin-2-yl)methyl]-2,4-dioxo-1-pyridazin-3-yl-1,3,8-triazaspiro[4.5]dec-3-yl}biphenyl-4-carboxylic acid] returned a half-maximal inhibitory concentration (IC50) on HIF-PHD2 of 0.5 to 20 nM. The same measure, in the same setting: in the case of `Cc1cccnc1CN1CCC2(CC1)C(=O)N(c1ccc(-c3ccccc3)cc1)C(=O)N2c1cccc(F)n1` [Compound 1-6, 3-biphenyl-4-yl-1-(6-fluoropyridin-2-yl)-8-[(3-methylpyridin-2-yl)methyl]-1,3,8-triazaspiro[4.5]decane-2,4-dione] it was 0.5 to 20 nM; in that of `O=C(O)CN1CCC2(CC1)C(=O)N(c1ccc(-c3ccccc3)cc1)C(=O)N2c1cnccn1` [Compound 2-3, (3-biphenyl-4-yl-2,4-dioxo-1-pyrazin-2-yl-1,3,8-triazaspiro[4.5]dec-8-yl)acetic acid], 0.5 to 20 nM. `COc1ccnc(N2C(=O)N(c3ccc(-c4ccccc4)cc3)C(=O)C23CCN(Cc2nnn[nH]2)CC3)n1` [Compound 1.39, 3-biphenyl-4-yl-1-(4-methoxypyrimidin-2-yl)-8-(1H-tetrazol-5-ylmethyl)-1,3,8-triazaspiro[4.5]decane-2,4-dione]: on HIF-PHD2, the IC50 was above 50 nM. With `COc1ccnc(N2C(=O)N(c3ccc(-c4ccccc4)cc3)C(=O)C23CCN(Cc2nccn2CC(=O)O)CC3)n1` [Compound 1-21, (2-{[3-biphenyl-4-yl-1-(4-methoxypyrimidin-2-yl)-2,4-dioxo-1,3,8-triazaspiro[4.5]dec-8-yl]methyl}-1H-imidazol-1-yl)acetic acid], the concentration for half-maximal inhibition (IC50) on HIF-PHD2 lay within 0.5 to 20 nM. Same read-out and setting: in the case of `Cc1cccnc1CN1CCC2(CC1)C(=O)N(c1ccc(-c3ccccc3)cc1)C(=O)N2c1cnc(O)cn1` [Compound 1-45, 3-biphenyl-4-yl-1-(5-hydroxypyrazin-2-yl)-8-[(3-methylpyridin-2-yl)methyl]-1,3,8-triazaspiro[4.5]decane-2,4-dione] it was 20 to 50 nM.

Take `COc1cc(N2C(=O)N(c3ccc(-c4ccc(C(=O)O)cc4)nc3)C(=O)C23CCN(Cc2cc(O)ccn2)CC3)ncn1` [Compound 10-4, 4-(5-{8-[(4-hydroxypyridin-2-yl)methyl]-1-(6-methoxypyrimidin-4-yl)-2,4-dioxo-1,3,8-triazaspiro[4.5]dec-3-yl}-pyridin-2-yl) benzoic acid]: the IC50 on HIF-PHD2 is 0.5 to 20 nM.
